Tested on: NCI-H1341 complex spheroids, percent test/control
Assay: Anticancer human tumor NCI-H1341 cell line growth inhibition [AhR];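 also: spheroids exposed to agents for seven days before readout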
Conditions: for IC50: curve of first compound; for viability, T/C: stronger effect = lower value
How it was run: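 Complex tumor spheroids co-cultured with HUVEC and human MSC stroma; AhR antagonists tested in combination with standard-of-care and investigational agents. Top concentration at or near clinical Cmax (else 10 microM), half-log dilutions; growth expressed as percent test/control.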

[1] = second compound 0.1 µM, first compound 0.0316 µM
[2] = second compound 0.1 µM, first compound 0.1 µM
[3] = second compound 0.316 µM, first compound 0.0316 µM
[4] = second compound 0.316 µM, first compound 0.1 µM
[5] = second compound 1 µM, first compound 0.0316 µM
[6] = second compound 1 µM, first compound 0.1 µM
[7] = second compound 3.16 µM, first compound 0.0316 µM
[8] = second compound 3.16 µM, first compound 0.1 µM
[9] = second compound 10 µM, first compound 0.0316 µM
[10] = second compound 10 µM, first compound 0.1 µM
[11] = second compound 0.1 µM, first compound 0.316 µM
[12] = second compound 0.1 µM, first compound 1 µM
[13] = second compound 0.1 µM, first compound 3.16 µM
[14] = second compound 0.1 µM, first compound 10 µM
[15] = second compound 0.316 µM, first compound 0.316 µM
[16] = second compound 0.316 µM, first compound 1 µM
[17] = second compound 0.316 µM, first compound 3.16 µM
[18] = second compound 0.316 µM, first compound 10 µM
[19] = second compound 1 µM, first compound 0.316 µM
[20] = second compound 1 µM, first compound 1 µM
[21] = second compound 1 µM, first compound 3.16 µM
[22] = second compound 1 µM, first compound 10 µM
[23] = second compound 3.16 µM, first compound 0.316 µM
[24] = second compound 3.16 µM, first compound 1 µM
[25] = second compound 3.16 µM, first compound 3.16 µM
[26] = second compound 3.16 µM, first compound 10 µM
[27] = second compound 10 µM, first compound 0.316 µM
[28] = second compound 10 µM, first compound 1 µM
[29] = second compound 10 µM, first compound 3.16 µM
[30] = second compound 10 µM, first compound 10 µM

For CC[C@@]1(O)C(=O)OCc2c1cc1n(c2=O)Cc2cc3c(CN(C)C)c(O)ccc3nc2-1 + Cc1ccccc1N=Nc1ccc(NC(=O)c2ccnn2C)c(C)c1, the IC50 (second compound 0.1 µM) was 59.1 nM, the IC50 (second compound 0.316 µM) was greater than 100 nM and the IC50 (second compound 1 µM) was 67.1 nM. It also gave an IC50 (second compound 3.16 µM) greater than 100 nM, an IC50 (second compound 10 µM) of 35.2 nM and a viability, T/C (second compound 0.1 µM, first compound 0.000316 µM) of 103%. The viability, T/C (second compound 0.1 µM, first compound 0.001 µM) was 99.8%, the viability, T/C (second compound 0.1 µM, first compound 0.00316 µM) was 91.1% and the viability, T/C (second compound 0.1 µM, first compound 0.01 µM) was 80.2%. The viability, T/C [1] was 51.8%, the viability, T/C [2] was 47.5% and the viability, T/C (second compound 0.316 µM, first compound 0.000316 µM) was 99.5%. For the same compound, the viability, T/C (second compound 0.316 µM, first compound 0.001 µM) was 83.4%, the viability, T/C (second compound 0.316 µM, first compound 0.00316 µM) was 97.7% and the viability, T/C (second compound 0.316 µM, first compound 0.01 µM) was 74.6%. It also gave a viability, T/C [3] of 49.9%, a viability, T/C [4] of 52.9% and a viability, T/C (second compound 1 µM, first compound 0.000316 µM) of 97.4%. The viability, T/C (second compound 1 µM, first compound 0.001 µM) was 83.5%, the viability, T/C (second compound 1 µM, first compound 0.00316 µM) was 82.3% and the viability, T/C (second compound 1 µM, first compound 0.01 µM) was 70.2%. The viability, T/C [5] was 57.2%, the viability, T/C [6] was 45.8% and the viability, T/C (second compound 3.16 µM, first compound 0.000316 µM) was 76.6%. It also gave a viability, T/C (second compound 3.16 µM, first compound 0.001 µM) of 94.7%, a viability, T/C (second compound 3.16 µM, first compound 0.00316 µM) of 65.5% and a viability, T/C (second compound 3.16 µM, first compound 0.01 µM) of 64.2%. The viability, T/C [7] was 45.2%, the viability, T/C [8] was 52.9% and the viability, T/C (second compound 10 µM, first compound 0.000316 µM) was 46.4%. For the same compound, the viability, T/C (second compound 10 µM, first compound 0.001 µM) was 58%, the viability, T/C (second compound 10 µM, first compound 0.00316 µM) was 51.6% and the viability, T/C (second compound 10 µM, first compound 0.01 µM) was 49.8%. For the same compound, the viability, T/C [9] was 49.6% and the viability, T/C [10] was 48.6%.
With COc1cc(C2c3cc4c(cc3C(OC3OC5COC(C)OC5C(O)C3O)C3COC(=O)C23)OCO4)cc(OC)c1O (stereo not given) + Cc1ccccc1N=Nc1ccc(NC(=O)c2ccnn2C)c(C)c1 the IC50 (second compound 0.1 µM) was 834 nM, the IC50 (second compound 0.316 µM) was 10000 nM and the IC50 (second compound 1 µM) was 725 nM. The IC50 (second compound 3.16 µM) was 255 nM, the IC50 (second compound 10 µM) was less than 31.6 nM and the viability, T/C [1] was 92.2%. For the same compound, the viability, T/C [2] was 82.4%, the viability, T/C [11] was 56% and the viability, T/C [12] was 46%. The viability, T/C [13] was 46.3%, the viability, T/C [14] was 53.4% and the viability, T/C [3] was 71.3%. For the same compound, the viability, T/C [4] was 79%, the viability, T/C [15] was 57.1% and the viability, T/C [16] was 50.4%. It also gave a viability, T/C [17] of 54.6%, a viability, T/C [18] of 48.9% and a viability, T/C [5] of 90.1%. For the same compound, the viability, T/C [6] was 88.5%, the viability, T/C [19] was 58.2% and the viability, T/C [20] was 50.2%. It also gave a viability, T/C [21] of 44.7%, a viability, T/C [22] of 44.5% and a viability, T/C [7] of 66.6%. For the same compound, the viability, T/C [8] was 68.4%, the viability, T/C [23] was 43.3% and the viability, T/C [24] was 43.5%. For the same compound, the viability, T/C [25] was 46.9%, the viability, T/C [26] was 50.2% and the viability, T/C [9] was 45.2%. It also gave a viability, T/C [10] of 46.6%, a viability, T/C [27] of 57.1% and a viability, T/C [28] of 44.6%. It also gave a viability, T/C [29] of 40.1% and a viability, T/C [30] of 49.9%.
Nc1ccn(C2OC(CO)C(O)C2(F)F)c(=O)n1 (stereo not given) + Cc1ccccc1N=Nc1ccc(NC(=O)c2ccnn2C)c(C)c1 gave an IC50 (second compound 0.1 µM) of less than 31.6 nM, an IC50 (second compound 0.316 µM) of less than 31.6 nM and an IC50 (second compound 1 µM) of less than 31.6 nM. It also gave an IC50 (second compound 3.16 µM) of less than 31.6 nM, an IC50 (second compound 10 µM) of less than 31.6 nM and a viability, T/C [1] of 33.4%. For the same compound, the viability, T/C [2] was 38.5%, the viability, T/C [11] was 43.6% and the viability, T/C [12] was 34.7%. For the same compound, the viability, T/C [13] was 32.5%, the viability, T/C [14] was 34.7% and the viability, T/C [3] was 40.3%. It also gave a viability, T/C [4] of 38%, a viability, T/C [15] of 34.7% and a viability, T/C [16] of 39.6%. For the same compound, the viability, T/C [17] was 31.6%, the viability, T/C [18] was 38.5% and the viability, T/C [5] was 43%. It also gave a viability, T/C [6] of 42.7%, a viability, T/C [19] of 35.5% and a viability, T/C [20] of 32.3%. For the same compound, the viability, T/C [21] was 31.1%, the viability, T/C [22] was 35.3% and the viability, T/C [7] was 45%. The viability, T/C [8] was 38.5%, the viability, T/C [23] was 38.7% and the viability, T/C [24] was 32.3%. For the same compound, the viability, T/C [25] was 36.9%, the viability, T/C [26] was 32.5% and the viability, T/C [9] was 44.2%. For the same compound, the viability, T/C [10] was 40.4%, the viability, T/C [27] was 41.4% and the viability, T/C [28] was 34.9%. For the same compound, the viability, T/C [29] was 29.7% and the viability, T/C [30] was 39.3%.
